This is an account of results in ChEMBL document CHEMBL2429832, “N-substituted 8-aminopentacyclo[5.4.0.0(2,6).0(3,10).0(5,9)]undecanes as σ receptor ligands with potential neuroprotective effects” (Bioorg Med Chem, 2013).

Some results are limits rather than exact numbers.

In assay [1] the target is 5-hydroxytryptamine receptor 1E (Homo sapiens) (UniProt P28566). As to the kind of experiment: Inhibition of 5-HT1E receptor (unknown origin) at 10 uM by PDSP assay relative to control.
The target in assay [2] is Beta-3 adrenergic receptor (Homo sapiens) (UniProt P13945). As to the kind of experiment: Inhibition of adrenergic beta3 receptor (unknown origin) at 10 uM by PDSP assay relative to control.
Assay [3] deals with T1, Alpha-1D adrenergic receptor (Homo sapiens) (UniProt P25100).
T1 sequence (whole entry): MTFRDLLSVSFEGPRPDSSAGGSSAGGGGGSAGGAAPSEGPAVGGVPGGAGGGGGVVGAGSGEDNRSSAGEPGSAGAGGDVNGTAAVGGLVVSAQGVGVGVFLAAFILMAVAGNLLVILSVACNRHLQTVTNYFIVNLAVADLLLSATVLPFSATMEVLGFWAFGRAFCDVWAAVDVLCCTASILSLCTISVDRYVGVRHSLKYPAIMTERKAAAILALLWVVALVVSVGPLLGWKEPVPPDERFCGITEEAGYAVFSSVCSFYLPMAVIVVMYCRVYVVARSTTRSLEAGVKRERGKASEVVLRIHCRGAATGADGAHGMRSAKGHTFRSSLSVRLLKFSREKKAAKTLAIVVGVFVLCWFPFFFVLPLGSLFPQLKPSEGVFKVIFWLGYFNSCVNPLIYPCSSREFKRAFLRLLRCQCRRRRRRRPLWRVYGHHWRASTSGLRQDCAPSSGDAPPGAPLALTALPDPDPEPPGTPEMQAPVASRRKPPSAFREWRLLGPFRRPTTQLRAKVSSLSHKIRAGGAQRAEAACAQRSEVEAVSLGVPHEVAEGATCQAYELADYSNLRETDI
Kind of assay: Inhibition of adrenergic alpha1D receptor (unknown origin) at 10 uM by PDSP assay relative to control.

The nature of assay [4]: Displacement of [3H]-DTG from sigma-2 receptor in rat PC12 cells. It is filed as cell-based. The following applies: pc-12.
The target of assay [5] is Delta-type opioid receptor (Homo sapiens, UniProt P41143). Kind of assay: Inhibition of delta opioid receptor (unknown origin) at 10 uM by PDSP assay relative to control.
Assay [6] concerns the target Kappa-type opioid receptor (Homo sapiens, UniProt P41145). Kind of assay: Inhibition of kappa opioid receptor (unknown origin) at 10 uM by PDSP assay relative to control.
For assay [7], the target named is 5-hydroxytryptamine receptor 5A (Homo sapiens, UniProt P47898). As to the kind of experiment: Inhibition of 5-HT5A receptor (unknown origin) at 10 uM by PDSP assay relative to control.
The target of assay [8] is 5-hydroxytryptamine receptor 6 (Homo sapiens, UniProt P50406). Kind of assay: Inhibition of 5-HT6 receptor (unknown origin) at 10 uM by PDSP assay relative to control.
Assay [9] addresses T2, 5-hydroxytryptamine receptor 2C (Homo sapiens) (UniProt P28335).
T2 sequence (whole entry): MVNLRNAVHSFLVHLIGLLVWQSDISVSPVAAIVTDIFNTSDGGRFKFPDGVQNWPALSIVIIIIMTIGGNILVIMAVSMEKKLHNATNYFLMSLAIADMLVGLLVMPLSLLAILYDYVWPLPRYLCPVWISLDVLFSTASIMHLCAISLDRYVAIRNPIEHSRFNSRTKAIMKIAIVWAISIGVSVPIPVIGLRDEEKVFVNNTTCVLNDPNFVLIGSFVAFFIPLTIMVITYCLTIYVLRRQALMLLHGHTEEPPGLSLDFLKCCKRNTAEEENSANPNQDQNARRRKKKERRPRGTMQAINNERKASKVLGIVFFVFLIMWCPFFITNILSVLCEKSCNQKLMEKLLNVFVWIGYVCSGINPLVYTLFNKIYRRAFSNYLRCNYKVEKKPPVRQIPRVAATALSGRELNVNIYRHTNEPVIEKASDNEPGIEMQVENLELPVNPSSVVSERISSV
As to the kind of experiment: Inhibition of 5-HT2C receptor (unknown origin) at 10 uM by PDSP assay relative to control.

The species entered for another assay is Rattus norvegicus. Kind of assay: Inhibition of rat brain BZP receptor at 10 uM by PDSP assay relative to control.
The target of assay [10] is T3, Alpha-1A adrenergic receptor (Homo sapiens) (UniProt P35348).
T3 sequence (whole entry): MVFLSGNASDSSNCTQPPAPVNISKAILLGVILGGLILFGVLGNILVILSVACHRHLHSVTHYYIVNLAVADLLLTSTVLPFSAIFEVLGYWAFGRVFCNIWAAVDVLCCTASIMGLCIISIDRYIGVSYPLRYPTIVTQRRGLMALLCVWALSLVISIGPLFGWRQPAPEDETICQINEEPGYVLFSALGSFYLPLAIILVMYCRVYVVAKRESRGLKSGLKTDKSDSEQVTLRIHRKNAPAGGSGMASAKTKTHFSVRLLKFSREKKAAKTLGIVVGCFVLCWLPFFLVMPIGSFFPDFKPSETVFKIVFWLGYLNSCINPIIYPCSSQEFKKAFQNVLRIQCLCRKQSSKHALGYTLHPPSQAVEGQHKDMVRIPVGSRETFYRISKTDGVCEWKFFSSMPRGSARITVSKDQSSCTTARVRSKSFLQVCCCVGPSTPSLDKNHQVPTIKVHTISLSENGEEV
Kind of assay: Inhibition of adrenergic alpha1A receptor (unknown origin) at 10 uM by PDSP assay relative to control.

Assay [11] concerns the target 5-hydroxytryptamine receptor 2A (Homo sapiens, UniProt P28223). Kind of assay: Inhibition of 5-HT2A receptor (unknown origin) at 10 uM by PDSP assay relative to control.

Usually inhibition stands for the drop in the measured response relative to a control, in per cent. Low readings indicate little suppression, high ones strong suppression. Usually Ki stands for a measure of affinity in units of concentration, obtained from inhibition or displacement. The low end stands for higher affinity, the high end for lower affinity.

Delta-type opioid receptor, sequence (P41143 whole entry): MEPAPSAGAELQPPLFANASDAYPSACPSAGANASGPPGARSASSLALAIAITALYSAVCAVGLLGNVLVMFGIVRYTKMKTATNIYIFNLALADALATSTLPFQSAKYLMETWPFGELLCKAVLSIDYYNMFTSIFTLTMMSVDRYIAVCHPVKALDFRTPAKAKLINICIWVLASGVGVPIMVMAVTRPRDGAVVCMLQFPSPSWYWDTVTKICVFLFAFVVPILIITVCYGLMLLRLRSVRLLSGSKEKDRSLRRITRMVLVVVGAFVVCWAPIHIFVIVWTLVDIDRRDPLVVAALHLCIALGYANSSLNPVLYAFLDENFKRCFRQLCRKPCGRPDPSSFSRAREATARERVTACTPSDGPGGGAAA
5-hydroxytryptamine receptor 5A, sequence (P47898 whole entry): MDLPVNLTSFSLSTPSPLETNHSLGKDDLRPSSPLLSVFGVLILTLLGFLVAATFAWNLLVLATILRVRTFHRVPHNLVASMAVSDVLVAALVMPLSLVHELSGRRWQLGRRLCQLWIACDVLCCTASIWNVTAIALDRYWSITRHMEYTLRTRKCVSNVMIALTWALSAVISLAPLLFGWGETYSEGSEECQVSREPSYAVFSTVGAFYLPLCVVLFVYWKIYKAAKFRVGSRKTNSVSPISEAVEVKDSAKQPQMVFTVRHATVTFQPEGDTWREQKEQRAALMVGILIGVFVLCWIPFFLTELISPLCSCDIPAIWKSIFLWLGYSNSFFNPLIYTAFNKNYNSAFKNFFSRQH
5-hydroxytryptamine receptor 2A, sequence (P28223 whole entry): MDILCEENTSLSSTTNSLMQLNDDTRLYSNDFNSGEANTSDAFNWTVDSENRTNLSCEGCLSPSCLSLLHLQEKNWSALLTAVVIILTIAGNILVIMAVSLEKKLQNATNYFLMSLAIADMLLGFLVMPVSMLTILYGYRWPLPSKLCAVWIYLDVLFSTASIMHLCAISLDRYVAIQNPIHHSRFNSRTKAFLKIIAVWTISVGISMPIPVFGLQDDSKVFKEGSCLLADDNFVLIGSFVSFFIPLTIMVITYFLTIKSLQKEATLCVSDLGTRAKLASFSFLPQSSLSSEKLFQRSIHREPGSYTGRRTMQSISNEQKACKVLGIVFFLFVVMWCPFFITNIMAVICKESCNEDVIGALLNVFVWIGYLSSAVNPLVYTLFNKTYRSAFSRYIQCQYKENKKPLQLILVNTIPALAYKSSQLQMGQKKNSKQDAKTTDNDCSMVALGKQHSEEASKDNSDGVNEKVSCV
5-hydroxytryptamine receptor 6, sequence (P50406 whole entry): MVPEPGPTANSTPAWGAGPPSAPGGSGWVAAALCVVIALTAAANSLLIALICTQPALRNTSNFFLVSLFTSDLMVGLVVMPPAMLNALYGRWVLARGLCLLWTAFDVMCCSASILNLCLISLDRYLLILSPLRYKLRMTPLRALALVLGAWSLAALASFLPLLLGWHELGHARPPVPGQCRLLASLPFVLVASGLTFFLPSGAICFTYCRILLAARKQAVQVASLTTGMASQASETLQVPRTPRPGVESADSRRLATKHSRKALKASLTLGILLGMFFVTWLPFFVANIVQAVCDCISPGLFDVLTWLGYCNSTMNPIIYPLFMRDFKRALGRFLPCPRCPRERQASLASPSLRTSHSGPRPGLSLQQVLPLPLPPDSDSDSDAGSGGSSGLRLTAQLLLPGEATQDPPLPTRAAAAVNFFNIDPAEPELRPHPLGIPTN
5-hydroxytryptamine receptor 1E (Homo sapiens), sequence (P28566 whole entry): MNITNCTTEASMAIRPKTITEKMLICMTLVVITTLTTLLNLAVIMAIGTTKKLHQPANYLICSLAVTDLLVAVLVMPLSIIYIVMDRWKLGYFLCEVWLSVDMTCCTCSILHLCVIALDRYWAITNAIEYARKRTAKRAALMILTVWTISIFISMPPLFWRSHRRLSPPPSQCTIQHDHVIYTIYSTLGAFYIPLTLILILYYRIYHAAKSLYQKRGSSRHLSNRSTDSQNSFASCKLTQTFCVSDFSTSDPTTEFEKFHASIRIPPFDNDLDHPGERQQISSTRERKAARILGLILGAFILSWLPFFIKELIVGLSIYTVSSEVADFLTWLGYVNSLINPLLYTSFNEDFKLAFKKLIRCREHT
Beta-3 adrenergic receptor (Homo sapiens), sequence (P13945 whole entry, looked up): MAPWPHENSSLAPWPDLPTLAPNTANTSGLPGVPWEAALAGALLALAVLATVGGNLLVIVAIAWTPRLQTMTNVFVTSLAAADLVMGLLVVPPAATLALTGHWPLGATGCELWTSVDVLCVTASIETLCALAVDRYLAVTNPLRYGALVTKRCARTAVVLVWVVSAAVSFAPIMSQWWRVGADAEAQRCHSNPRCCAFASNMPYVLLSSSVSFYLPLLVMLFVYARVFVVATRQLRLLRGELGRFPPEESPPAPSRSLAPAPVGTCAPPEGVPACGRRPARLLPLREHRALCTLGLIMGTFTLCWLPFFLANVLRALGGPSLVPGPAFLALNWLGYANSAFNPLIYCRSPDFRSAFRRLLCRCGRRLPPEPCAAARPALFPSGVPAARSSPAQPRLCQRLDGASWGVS
Kappa-type opioid receptor, sequence (P41145 whole entry): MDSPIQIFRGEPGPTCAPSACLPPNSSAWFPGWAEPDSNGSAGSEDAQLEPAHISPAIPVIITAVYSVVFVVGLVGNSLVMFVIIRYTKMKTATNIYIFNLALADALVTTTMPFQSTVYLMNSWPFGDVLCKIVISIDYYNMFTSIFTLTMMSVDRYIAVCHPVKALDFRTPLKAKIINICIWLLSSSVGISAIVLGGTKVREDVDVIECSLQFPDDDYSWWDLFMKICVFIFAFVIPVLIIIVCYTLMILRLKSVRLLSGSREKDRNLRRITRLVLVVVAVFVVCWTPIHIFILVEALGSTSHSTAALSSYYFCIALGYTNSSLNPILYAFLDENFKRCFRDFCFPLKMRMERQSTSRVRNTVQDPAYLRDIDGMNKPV

As for `c1ccc(CCN[C@H]2C3C4CC5C6C4CC3C6C52)cc1` (some centres undefined), the inhibition in assay [1], in assay [2], in assay [3], in assay [5], in [6] and in assay [7] was under 50% throughout. The inhibition in [8] and in assay [9] was under 50% each time. The affinity in [4], expressed as Ki, was 9.3 nM.
For `CN(CCc1ccccc1)[C@H]1C2C3CC4C5C3CC2C5C41` (some centres undefined), the inhibition (in assay [1]; in assay [2]; in the assay listed under Rattus norvegicus; in assay [3]; in assay [10]; in assay [5]) was under 50% in each case. Also, the inhibition in assay [6], in assay [7], in assay [8] and in [9] was under 50% each time. The same molecule registered a Ki in [4] of 16 nM.
`COc1cc(CN[C@H]2C3C4CC5C6C4CC3C6C52)cc(OC)c1OC` (some centres undefined): the inhibition (in [1]; in [2]; in the assay filed under Rattus norvegicus; in [3]; in [10]; in assay [5]) was under 50% each time. The inhibition in assay [7], in assay [8] and in [9] was under 50% in each case. In addition, the affinity in assay [4], expressed as Ki, was 627 nM.
In the case of `COc1ccc(CN[C@H]2C3C4CC5C6C4CC3C6C52)cc1OC` (some centres undefined), the inhibition in assay [11], in assay [1], in [2], in assay [3], in [10] and in [5] was under 50% each time. The inhibition in assay [6], in assay [7] and in [9] was under 50% each time. The affinity in assay [4], expressed as Ki, was 25 nM.
For `C1C2C3CC4C2C2C1C3[C@H](NCC13C5C6C7C5C1C7C63)C42` (some centres undefined), the inhibition (in assay [11]; in assay [1]; in assay [2]; in the assay listed under Rattus norvegicus; in assay [3]; in [10]) was under 50% throughout. Further, the inhibition in assay [5], in assay [8] and in assay [9] was under 50% in each case. Moreover, the affinity in [4] corresponds to a Ki of 2 nM.
`c1ccc(CCN[C@H]2C3C4CC5C6C4CC3C6C52)nc1` (some centres undefined): the inhibition in assay [11], in assay [1], in [2], in [3], in [5] and in assay [6] was under 50% each time. The inhibition in [7] and in [9] was under 50% throughout. For the same molecule, in [4], the Ki came out at 8.6 nM.
On to `c1cc2c(cc1CN[C@H]1C3C4CC5C6C4CC3C6C51)OCO2` (some centres undefined), for which the inhibition (in [11]; in [1]; in assay [2]; in the assay listed under Rattus norvegicus; in assay [3]; in assay [10]) was under 50% in each case. Further, the inhibition in assay [5], in [6], in assay [8] and in [9] was under 50% in each case. Further, the Ki in assay [4] is 15 nM.
Take `c1ccc(CN[C@H]2C3C4CC5C6C4CC3C6C52)cc1` (some centres undefined): the inhibition in assay [11], in [1], in assay [2], in assay [3], in assay [5] and in assay [7] was under 50% throughout. Further, the inhibition in assay [8] and in assay [9] was under 50% each time. In assay [4], this molecule displayed a Ki of 19 nM.
